The values below come from the NIST ThermoML archive (doi:10.1016/j.jct.2015.05.014).

Numbers after ± are expanded uncertainties.

A short description of this series: activity coefficient (dimensionless); of the first substance listed, at infinite dilution; xn = mol fraction of the nth substance listed. Particulars: 100 kPa, Liquid, Chromatography, x1 = 0.

For the molecule `CCCCCCCC` [octane] + CC(O)C(=O)[O-].CC[N+]1(C)CCCC1, the activity coefficient reads like this: (308.15 K) 334 ± 29; (318.15 K) 307 ± 27; (328.15 K) 275 ± 24; (338.15 K) 254 ± 22; (348.15 K) 236 ± 20; (358.15 K) 217 ± 19. Where the note is “368.15 K”, the activity coefficient turned out to be 200 ± 17.
As for `CCCC(C)=O` [pentan-2-one] + CC(O)C(=O)[O-].CC[N+]1(C)CCCC1, the activity coefficient is 4.7 ± 0.41 (318.15 K); 4.78 ± 0.41 (328.15 K); 4.85 ± 0.42 (338.15 K); 4.93 ± 0.43 (348.15 K); 5.01 ± 0.43 (358.15 K); 5.14 ± 0.44 (368.15 K).
For `CCC(=O)CC` [pentan-3-one] + CC(O)C(=O)[O-].CC[N+]1(C)CCCC1, the activity coefficient came to 4.84 ± 0.42 (318.15 K); 4.93 ± 0.43 (328.15 K); 5.05 ± 0.44 (338.15 K); 5.14 ± 0.44 (348.15 K); 5.22 ± 0.45 (358.15 K); 5.35 ± 0.46 (368.15 K).
In the case of `CCCO` [propan-1-ol] + CC(O)C(=O)[O-].CC[N+]1(C)CCCC1, the activity coefficient was found to be 0.236 ± 0.032 (358.15 K); 0.256 ± 0.033 (368.15 K); 0.277 ± 0.034 (378.15 K); 0.302 ± 0.035 (388.15 K); 0.327 ± 0.036 (398.15 K); 0.349 ± 0.037 (408.15 K).
As for `c1ccncc1` [pyridine] + CC(O)C(=O)[O-].CC[N+]1(C)CCCC1, the activity coefficient was 1.26 ± 0.11 (318.15 K); 1.3 ± 0.11 (328.15 K); 1.36 ± 0.11 (338.15 K); 1.41 ± 0.12 (348.15 K); 1.46 ± 0.12 (358.15 K); 1.53 ± 0.13 (368.15 K).
`C1CCOC1` [tetrahydrofuran] + CC(O)C(=O)[O-].CC[N+]1(C)CCCC1: the activity coefficient (308.15 K) was found to be 3.51 ± 0.3; the activity coefficient (318.15 K) turned out to be 3.54 ± 0.31; the activity coefficient (328.15 K) was determined as 3.59 ± 0.31; the activity coefficient (338.15 K) was determined as 3.62 ± 0.31; the activity coefficient (348.15 K) turned out to be 3.68 ± 0.32; the activity coefficient (358.15 K) came out at 3.74 ± 0.32. Moreover, the activity coefficient (368.15 K) was 3.82 ± 0.33.
Take `c1ccsc1` [thiophene] + CC(O)C(=O)[O-].CC[N+]1(C)CCCC1: the activity coefficient is, setting by setting: (318.15 K) 1.29 ± 0.11; (328.15 K) 1.38 ± 0.12; (338.15 K) 1.47 ± 0.12; (348.15 K) 1.56 ± 0.13; (358.15 K) 1.64 ± 0.14; (368.15 K) 1.75 ± 0.15.
With `Cc1ccccc1` [toluene] + CC(O)C(=O)[O-].CC[N+]1(C)CCCC1, the activity coefficient worked out at 5.36 ± 0.46 (318.15 K); 5.5 ± 0.47 (328.15 K); 5.62 ± 0.48 (338.15 K); 5.76 ± 0.5 (348.15 K); 5.89 ± 0.51 (358.15 K); 6.06 ± 0.52 (368.15 K).
As to `O` [water] + CC(O)C(=O)[O-].CC[N+]1(C)CCCC1, the activity coefficient (368.15 K) was determined as 0.046; the activity coefficient (378.15 K) stood at 0.052; the activity coefficient (388.15 K) was found to be 0.059; the activity coefficient (398.15 K) is 0.066 ± 0.03; the activity coefficient (408.15 K) was found to be 0.072 ± 0.03.
